In patent publication US20200108112A1, “METHOD FOR PREPARING FENUGREEK EXTRACT AND PHARMACEUTICAL COMPOSITION COMPRISING FENUGREEK EXTRACT” (PRINCE PHARMACEUTICAL CO., LTD., priority 2017, published 2020):

System: HepG2 cells
Test: Lipid droplets formation in HepG2 cells, formula of fenugreek extract (oil red-O / MTS index)
Assay type: cell-based
Details: lipid droplets induced group = 100%; treated 16 hours, then lipid droplets induced reagent 16 hours
Protocol: (1) HepG2 cells were seeded at 2.5×10^4 cells/well and incubated for 24 hours. (2) The incubated cells were divided into the following groups: Control group (CG) was added with 1% DMSO to treat the HepG2 cells for 16 hours, and then treated with cell culture medium for 16 hours. Lipid droplets induced group (LDIG) was added with 1% DMSO to treat the HepG2 cells for 16 hours, and then treated with 500 nM lipid droplets induced reagent for 16 hours. […] In addition, in a preferred embodiment, Vitamin E, SiO2, MAG and Fibersol-2 ® may be additionally added as desired. Each experiment group was respectively added to treat the HepG2 cells for 16 hours, and then treated with lipid droplets induced reagent for 16 hours. [table] (3) The above groups were examined by MTS assay and oil red-O stain, and the oil red OD value/MTS OD value was used as the index of lipid droplets.

NCCS(=O)(=O)O [experiment group 7, taurine]
percentage of the lipid droplet formation: 72.4%
